Here are results for two compounds from patent US12668649B2, “Monoglycerol acrylate based polymer and uses thereof” (priority 2022, dated 2026).

Data set [1] can be described thus: Critical micellar concentration by Nile red fluorescence. Format: physicochemical.
Method: We characterized the critical micellar concentration (CMC) of the polymers to evaluate their ability to self-assemble into polymolecular structures.
Nile red can be used to measure the CMC of surfactants and polymolecular architectures by following the fluorescence of the dye: the critical micelle concentration coincides with a strong increase in the intensity of the fluorescence (λex/em: 549/628 nm). Serial dilutions of polymers were made in the range of 2.5 to 7×10^−4 mg/mL. 200 μL of each sample were used with 10 μL of Nile Red solution in methanol (1×10^−5 M). Fluorescence was read in a 96-well plate (λex/em: 549/628 nm).
For data set [2] the following is noted: mouse, in vivo, iv.
Method: The impact of CTA-PGMA-DODA and PMGA-DODA on the circulation profile of radiolabeled [^14C]-liposomes was studied in healthy Balb/c mice. In this study, the concentrations of radiolabeled liposomes in the blood were monitored for 6 hours after intravenous injection.
Healthy animals were housed in a controlled environment (22° C., 12 hours day/night cycle) with ad libitum access to food and water. A total of 11 healthy male mice were divided in three groups (3-3-5). As a blank, liposomes without polymer on the surface were injected intravenously by the subclavian vein at a concentration of 2 mg/kg of phospholipids. Approximately 30-50 μL of blood was collected at various times (0.25, 0.5, 1, 2, 4, 6 Hours). Six hours post-injection, blood was collected by cardiac puncture for a terminal timepoint. Animals were euthanized by a cardiac perfusion with 3 mL of isotonic phosphate-buffered saline solution pH=7.2 (potassium phosphate 1.1 mmol/L, NaCl 150 mmol/L, disodium phosphate 3 mmol/L) and organs were collected. Biological samples were digested at 58° C. (in Solvable®, Perkin Elmer®), bleached with 30% hydrogen peroxide, and assessed by scintillation counting, using Hionic Fluor® (Perkin Elmer®) as a scintillation cocktail.

In turn, `CCCCCCCCCCCCOS(=O)(=O)[O-].[Na+]` [SDS, sodium dodecyl sulfate] showed a CMC in data set [1] of 2 mg/mL.
As for “DODA-Terminated Poly(Monoglycerol Acrylate) [PMGA-DODA6.5k]”, in data set [2], the “AUC0-6 h of the control liposomes relative to the liposome formulation prepared with the named polymer” value was 1.2 fold and the “effect on circulation time of liposomes” value is “do not seem to prolong the circulation time”.
